Data published in patent publication US5476850A, “Amino-substituted benzenesulfonylureas and -thioureas and their use as pharmaceuticals” (Hoechst Aktiengesellschaft, priority 1993, dated 1995).

Tests used:
[1] = test system: papillary muscle of the guinea-pig; assay: Action potential duration on the papillary muscle of the guinea-pig (microelectrode technique; APD shortened by 2-deoxyglucose or rilmakalim); type: cell-based; conditions: test substance 2.2·10^-5 mol per liter, 30 minutes after addition, control <40 ms; for APD95 -rilmakalim: action potential reduced by 1 μM rilmakalim (Hoe 234); for APD95 -DEO: action potential reduced by 2-deoxyglucose (DEO)
From the text: (1) Action potential duration on the papillary muscle of the guinea-pig:
ATP deficiency states, as are observed during ischemia in the cardiac muscle cell, lead to a reduction of the action potential duration. They count as one of the causes of so-called reentry arrhythmias, which can cause sudden heart death. The opening of ATP-sensitive K channels by the reduction of ATP counts as causal here.
To measure the action potential, a standard microelectrode technique is employed. For this, guinea-pigs of both sexes are killed by a blow to the head, the hearts are removed, and the papillary muscles are separated out and suspended in an organ bath. The organ bath is irrigated with Ringer solution (0.9% NaCl, 0.048% KCl, 0,024% CaCl2, 0.02% NaHCO3 and 0.1% glucose) and aerated with a mixture of 95% oxygen and 5% carbon dioxide at a temperature of 36° C. The muscle is stimulated by means of an electrode using square-wave impulses of 1 V and 1 ms duration and a frequency of 2 Hz. The action potential is derived and recorded by means of a glass microelectrode inserted intracellularly, which is filled with […] KCl solution. The substances to be tested were added to the Ringer solution in a concentration of 2.2·10^-5 mol per liter. The action potential is shown amplified on an oscilloscope using an amplifier from Hugo Sachs. The duration of the action potential is determined at a degree of repolarization of 95% (APD95). Action potential reductions are produced either by addition of a 1 μM solution of the potassium channel opener rilmakalim (Hoe 234) [W. Linz, E. Klaus, U. Albus, R. H. A. Becker, D. Mania, H. C. Englert, B. A. Schokens, Arzneimittelforschung/Drug Research, Volume 42 (II), 1992, pp. 1180 to 1185] or by addition of 2-deoxyglucose (DEO). In experimental physiology, ATP deficiency states are produced by 2-deoxyglucose by blockade of glucose metabolism. The action potential-reducing effect of these substances was prevented or reduced by the simultaneous addition of the test substances. Test substances were added to the bath solution as stock solutions in propanediol. The values indicated relate to measurements 30 minutes after addition. The APD95 in the presence of […] or rilmakalim and in the absence of the test substance counts as the control.

RINm5F cells = assay: Membrane potential on isolated β-cells (whole cell patch clamp, RINm5F cells); type: cell-based; conditions: compound 10^-6 mol per liter; diazoxide 100 μmol in bath; 34°±1° C.; blank cell potential -76
From the text: (2) Membrane potential on isolated β-cells:
The mechanism of action of the hypoglycemic sulfonylureas is elucidated in rough terms. The target organ is the β-cells of the pancreas where increased secretion of the hypoglycemic hormone insulin occurs. The release of insulin is controlled by means of the cell membrane potential. Glibenclamide causes a depolarization of the cell membrane, which promotes insulin release via an increased influx of calcium ions. The extent of this depolarization of the cell membrane ΔU was determined on RINm5F cells, a pancreas tumor cell line, for a few of the compounds according to the invention. The potency of a compound in this model predicts the extent of the hypoglycemic potential of this compound.
RINm5F cells were cultured at 37° C. in RPMI 1640 culture medium (Flow), to which 11 mmol of glucose, 10% (vol/vol) fetal calf-serum, 2 mmol of glutamine and 50 μg/ml of gentamycin were added. […]
Isolated RINm5F cells were transferred to a Plexiglas chamber on an inverted microscope which is equipped with a differential interference contrast optical system. […] In this whole cell configuration, the cell potential was recorded with the aid of a patch clamp amplifier (L/M EPC 7) and measured by applying a voltage ramp to the whole cell current. […]

| SMILES | APD95 -rilmakalim [1] [ms] | APD95 -DEO [1] [ms] | ΔU (depolarization of the cell membrane) (RINm5F cells) [mv] |
| --- | --- | --- | --- |
| CNC(=S)NS(=O)(=O)c1cc(CCNC(=O)c2cc(Cl)ccc2OC)ccc1N1CCOCC1 [Example 1, 2-Methoxy-5-chloro-N-{5-[1-sulfonylamino-N-(methylaminothiocarbonyl)-2-(4-morpholino)phenyl]ethyl}benzamide] | 121 ± 14 | 110 | 14 |
| CNC(=S)NS(=O)(=O)c1cc(CCNC(=O)c2cc(Cl)ccc2OC)ccc1N1CCCCC1 [Example 2, 2-Methoxy-5-chloro-N-{5-[1-sulfonylamino-N-(methylaminothiocarbonyl)-2-(1-piperidyl)phenyl]ethyl}benzamide] | 153 ± 15 | 105 ± 11 | 19 |
